{"source": "paper PMC11714206", "about": "“Massively Parallel Screening of Toll/Interleukin‐1 Receptor (TIR)‐Derived Peptides Reveals Multiple Toll‐Like Receptors (TLRs)‐Targeting Immunomodulatory Peptides” (Advanced Science, 2024)", "target": "T1, MAL^TIR (Homo sapiens, UniProt P58753)", "T1 construct": "MAL (residues 79–221); 6xHis; made in house; host or cells: E. coli BL21 (DE3)", "T1 sequence (P58753 79-221)": "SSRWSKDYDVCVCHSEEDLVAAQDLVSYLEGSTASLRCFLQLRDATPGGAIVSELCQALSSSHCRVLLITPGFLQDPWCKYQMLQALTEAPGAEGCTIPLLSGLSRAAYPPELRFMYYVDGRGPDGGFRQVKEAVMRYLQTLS", "assay": "T‐Surf phage library (P8 and P3) selection against MAL^TIR, four rounds, NGS read counts", "type": "binding", "conditions": "for P3_MAL Rank (after) / P3_MAL Rank (before): P3 library; for P8_MAL Rank (after) / P8_MAL Rank (before): P8 library; for Population: 4th round of selection against MAL TIR, share of NGS reads", "in_short": "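Library of 190 946 TIR‐derived peptides on P8 or P3 was panned on immobilized TIR domain coated at 5 µg mL^−1, BSA‐blocked, 1 h binding at RT, PBS/0.5% Tween‐20 washes, HCl elution, TG1 amplification. Fourth‐round pools were PCR‐barcoded, sequenced (100 bp paired‐end, Phred ≥30), and peptides ranked by read counts.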", "key": {"[1]": {"conditions": "P8_MAL: rank by count after grouping"}, "[2]": {"conditions": "P8_MAL: rank by count before grouping"}, "[3]": {"conditions": "selection against MAL, rank by count after grouping"}, "[4]": {"conditions": "selection against MAL, rank by count before grouping"}, "[5]": {"conditions": "selection against MAL TIR, rank by count after grouping"}, "[6]": {"conditions": "selection against MAL TIR, rank by count before grouping"}, "[7]": {"conditions": "selection against MAL, rank after grouping"}, "[8]": {"conditions": "selection against MAL, rank before grouping"}, "[9]": {"conditions": "4R selection against MAL, rank after grouping"}, "[10]": {"conditions": "4R selection against MAL, rank before grouping"}, "[11]": {"conditions": "P3_MAL: rank by count after grouping"}, "[12]": {"conditions": "P3_MAL: rank by count before grouping"}}}
{"sequence": "AFLYTFLNNLTHPTKF", "values": [{"measurement": "Rank (after)", "setting": "[1]", "value": 94}, {"measurement": "Rank (before)", "setting": "[2]", "value": 1870}]}
{"sequence": "KMQKWKDALYEAANPT", "values": [{"measurement": "P3_MAL Rank (after)", "setting": "[3]", "value": 734}, {"measurement": "P3_MAL Rank (before)", "setting": "[4]", "value": 3683}]}
{"sequence": "FTLAVQVRNLLVGAFI", "values": [{"measurement": "P8_MAL Rank (after)", "setting": "[5]", "value": 262}, {"measurement": "P8_MAL Rank (before)", "setting": "[6]", "value": 1099}]}
{"sequence": "WCYERRVSLILRETKV", "values": [{"measurement": "Rank (after)", "setting": "[1]", "value": 385}, {"measurement": "Rank (before)", "setting": "[2]", "value": 1403}]}
{"sequence": "PNLRTTVQNYLMRTKT", "values": [{"measurement": "P3_MAL Rank (after)", "setting": "[5]", "value": 216}, {"measurement": "P3_MAL Rank (before)", "setting": "[6]", "value": 2690}]}
{"sequence": "LFWELLRQALGSRNRL", "values": [{"measurement": "P8_MAL Rank (after)", "setting": "[7]", "value": 488}, {"measurement": "P8_MAL Rank (before)", "setting": "[8]", "value": 2152}]}
{"sequence": "YAFTGYLHRYVVQRGV", "values": [{"measurement": "P3_MAL Rank (after)", "setting": "[7]", "value": 519}, {"measurement": "P3_MAL Rank (before)", "setting": "[8]", "value": 1355}]}
{"sequence": "YAARANSGFHTFRDND", "values": [{"measurement": "P3_MAL Rank (after)", "setting": "[3]", "value": 740}, {"measurement": "P3_MAL Rank (before)", "setting": "[4]", "value": 1489}]}
{"sequence": "VFFWAQLKKVLRNPTR", "values": [{"measurement": "P8_MAL Rank (after)", "setting": "[9]", "value": 627}, {"measurement": "P8_MAL Rank (before)", "setting": "[10]", "value": 1563}]}
{"sequence": "YAFSGHLLHDLVLIRE", "values": [{"measurement": "Rank (after)", "setting": "[11]", "value": 427}, {"measurement": "Rank (before)", "setting": "[12]", "value": 1347}]}
{"sequence": "VEPTQVRKQSGAVEM", "values": [{"measurement": "P3_MAL Rank (after)", "setting": "[3]", "value": 716}, {"measurement": "P3_MAL Rank (before)", "setting": "[4]", "value": 1671}]}
{"sequence": "AFFWAICIMRWCRRAF", "values": [{"measurement": "P8_MAL Rank (after)", "setting": "[3]", "value": 708}, {"measurement": "P8_MAL Rank (before)", "setting": "[4]", "value": 1656}]}
{"sequence": "AFLYTFLINLTHPPI", "values": [{"measurement": "Rank (after)", "setting": "[1]", "value": 190}, {"measurement": "Rank (before)", "setting": "[2]", "value": 1854}]}
{"sequence": "AFFCTHLKSVLDNPTM", "values": [{"measurement": "P8_MAL Rank (after)", "setting": "[9]", "value": 623}, {"measurement": "P8_MAL Rank (before)", "setting": "[10]", "value": 1589}]}
{"sequence": "YALPAICIVIWCSVA", "values": [{"measurement": "Rank (after)", "setting": "[11]", "value": 138}, {"measurement": "Rank (before)", "setting": "[12]", "value": 516}]}
{"sequence": "HLFCIQLKSILGETSF", "values": [{"measurement": "P8_MAL Rank (after)", "setting": "[7]", "value": 506}, {"measurement": "P8_MAL Rank (before)", "setting": "[8]", "value": 2428}]}
{"sequence": "ALFWEQLRTVLGKLTM", "values": [{"measurement": "Rank (after)", "setting": "[1]", "value": 435}, {"measurement": "Rank (before)", "setting": "[2]", "value": 1924}]}
{"sequence": "AFFWERLRPVLRKPTR", "values": [{"measurement": "P8_MAL Rank (after)", "setting": "[9]", "value": 637}, {"measurement": "P8_MAL Rank (before)", "setting": "[10]", "value": 1668}]}
{"sequence": "SSFLSHLFDALQRKQI", "values": [{"measurement": "P3_MAL Rank (after)", "setting": "[5]", "value": 218}, {"measurement": "P3_MAL Rank (before)", "setting": "[6]", "value": 1020}]}
{"sequence": "AFLYTFLINLTHPTIH", "values": [{"measurement": "Rank (after)", "setting": "[1]", "value": 161}, {"measurement": "Rank (before)", "setting": "[2]", "value": 852}]}
{"sequence": "KNLFYDLVSKNIRTFM", "values": [{"measurement": "P3_MAL Rank (after)", "setting": "[3]", "value": 712}, {"measurement": "P3_MAL Rank (before)", "setting": "[4]", "value": 3473}]}
{"sequence": "WFYERLFSLILRATKV", "values": [{"measurement": "Rank (after)", "setting": "[1]", "value": 148}, {"measurement": "Rank (before)", "setting": "[2]", "value": 1160}]}
{"sequence": "ALCWAQLKIVLANLPI", "values": [{"measurement": "P8_MAL Rank (after)", "setting": "[5]", "value": 271}, {"measurement": "P8_MAL Rank (before)", "setting": "[6]", "value": 1926}]}
{"sequence": "YAFTGHLHHYFAAKGIKM", "values": [{"measurement": "Rank (after)", "setting": "[11]", "value": 385}, {"measurement": "Rank (before)", "setting": "[12]", "value": 1428}]}
{"sequence": "RLLKWGYPWFWDRLRFA", "values": [{"measurement": "Rank (after)", "setting": "[11]", "value": 187}, {"measurement": "Rank (before)", "setting": "[12]", "value": 907}]}
{"sequence": "RGFTSHLYHRIQRNSN", "values": [{"measurement": "P3_MAL Rank (after)", "setting": "[9]", "value": 605}, {"measurement": "P3_MAL Rank (before)", "setting": "[10]", "value": 2419}]}
{"sequence": "RNFVADLFQALADKGI", "values": [{"measurement": "P8_MAL Rank (after)", "setting": "[9]", "value": 666}, {"measurement": "P8_MAL Rank (before)", "setting": "[10]", "value": 2308}]}
{"sequence": "YFLHLLLFSRPETEYN", "values": [{"measurement": "P8_MAL Rank (after)", "setting": "[7]", "value": 552}, {"measurement": "P8_MAL Rank (before)", "setting": "[8]", "value": 1509}]}
{"sequence": "SSFREGLASAGTEQK", "values": [{"measurement": "Rank (after)", "setting": "[11]", "value": 156}, {"measurement": "Rank (before)", "setting": "[12]", "value": 1037}]}
{"sequence": "AFFGAQLKSVLGNPPM", "values": [{"measurement": "P8_MAL Rank (after)", "setting": "[5]", "value": 210}, {"measurement": "P8_MAL Rank (before)", "setting": "[6]", "value": 1740}]}
{"sequence": "DLFLSKLSQHLLKREK", "values": [{"measurement": "Rank (after)", "setting": "[11]", "value": 455}, {"measurement": "Rank (before)", "setting": "[12]", "value": 1861}]}
{"sequence": "YAFKGNLHRYLVQRGV", "values": [{"measurement": "Rank (after)", "setting": "[11]", "value": 162}, {"measurement": "Rank (before)", "setting": "[12]", "value": 1483}]}
{"sequence": "LFFGKALNSCCVAIA", "values": [{"measurement": "P8_MAL Rank (after)", "setting": "[9]", "value": 649}, {"measurement": "P8_MAL Rank (before)", "setting": "[10]", "value": 2136}]}
{"sequence": "YAFTGHLHRYLVQRGL", "values": [{"measurement": "Population", "setting": "P3_MAL pool: P3 T-Surf phage library", "value": 0.00376, "unit": "%"}]}
{"sequence": "TFLDTLLNKLAQAAIH", "values": [{"measurement": "Rank (after)", "setting": "[1]", "value": 470}, {"measurement": "Rank (before)", "setting": "[2]", "value": 2626}]}
{"sequence": "YAFTGHLHRYLVQRA", "values": [{"measurement": "Rank (after)", "setting": "[11]", "value": 137}, {"measurement": "Rank (before)", "setting": "[12]", "value": 398}]}
{"sequence": "TFLGHLYNTLVQACIH", "values": [{"measurement": "P8_MAL Rank (after)", "setting": "[9]", "value": 650}, {"measurement": "P8_MAL Rank (before)", "setting": "[10]", "value": 2598}]}
{"sequence": "NQWRDPLTGDMILSGW", "values": [{"measurement": "P3_MAL Rank (after)", "setting": "[3]", "value": 767}, {"measurement": "P3_MAL Rank (before)", "setting": "[4]", "value": 3336}]}
{"sequence": "YFLHFLLLAVRKPSI", "values": [{"measurement": "P8_MAL Rank (after)", "setting": "[5]", "value": 196}, {"measurement": "P8_MAL Rank (before)", "setting": "[6]", "value": 791}]}
{"sequence": "SFLHFLLLSRPETAYI", "values": [{"measurement": "Rank (after)", "setting": "[1]", "value": 395}, {"measurement": "Rank (before)", "setting": "[2]", "value": 1438}]}
{"sequence": "AFLYTFLINLTIRPIX", "values": [{"measurement": "Population", "setting": "P8_MAL pool: P8 T-Surf phage library", "value": 0.00371, "unit": "%"}]}
{"sequence": "AFLYTFLNNLTHTTNI", "values": [{"measurement": "P8_MAL Rank (after)", "setting": "[7]", "value": 536}, {"measurement": "P8_MAL Rank (before)", "setting": "[8]", "value": 1872}]}
{"sequence": "LFFCESLKQLLRSDGH", "values": [{"measurement": "P8_MAL Rank (after)", "setting": "[5]", "value": 244}, {"measurement": "P8_MAL Rank (before)", "setting": "[6]", "value": 2057}]}
{"sequence": "YAFTGHLHRYLQAKDH", "values": [{"measurement": "P3_MAL Rank (after)", "setting": "[7]", "value": 496}, {"measurement": "P3_MAL Rank (before)", "setting": "[8]", "value": 1419}]}
{"sequence": "QLIQQWMNCTCTSCI", "values": [{"measurement": "Rank (after)", "setting": "[1]", "value": 167}, {"measurement": "Rank (before)", "setting": "[2]", "value": 2379}]}
{"sequence": "MFGGDTFHDFLDLISM", "values": [{"measurement": "P8_MAL Rank (after)", "setting": "[5]", "value": 192}, {"measurement": "P8_MAL Rank (before)", "setting": "[6]", "value": 1005}]}
